Source: patent US20100273876A1, “ANTIBACTERIAL FORMULATION COMPRISING A DIALKYL SULPHOSUCCINATE AND A CARBANILIDE ANTIBACTERIAL AGENT” (priority 2007, published 2010)

Legend:
[1] = tested on: P. acnes PRP-002; assay: Agar dilution MIC assay; assay type: cell-based, Propionibacterium acnes; conditions: P. acnes PRP-002 (Tet/MLS)
Experimental: (§1) The propionibacteria were cultured and maintained on Wilkins-Chalgren Anaerobe Medium (agar and broth) at pH 6.0; all cultures were incubated anaerobically at 37° C. for 72 hours.
(§2) This is a standard international method for quantitatively assessing the antimicrobial activity of a compound in a solid medium. The test compound was prepared to 40× the highest concentration required (eg, 10 mg/ml for a final concentration of 250 μg/ml) and a series of doubling dilutions were performed in a suitable solvent. A set amount of these antimicrobial stock solutions was then added to molten agar medium (ca. 55° C.), mixed thoroughly, poured into sterile Petri dishes and allowed to cool/set.
(§3) A Multipoint™ Inoculator (AQS Manufacturing Ltd, UK) was used to inoculate the plates by spotting the inocula onto the surface of the agar, delivering approximately 1 to 2 μl per spot (yielding 10^5 CFU(colony forming units) per spot).
(§4) The plate(s) were then incubated under the conditions described above, following which they were examined visually for signs of bacterial growth. The MIC value was ascertained when there was a marked reduction in, or total loss of, growth on the test plate at the lowest concentration as compared to that of the growth on the control plate.
(§5) The assays were conducted in duplicate and included a positive control (culture medium, diluting solvent and inoculum).

[2] = tested on: P. acnes PRP-003; assay: Agar dilution MIC assay; assay type: cell-based, Propionibacterium acnes; conditions: P. acnes PRP-003 (Tet)
Experimental: as §1, §2, §3, §4, §5

[3] = tested on: P. acnes PRP-004; assay: Agar dilution MIC assay; assay type: cell-based, Propionibacterium acnes; conditions: P. acnes PRP-004 (Tet)
Experimental: as §1, §2, §3, §4, §5

[4] = tested on: P. acnes PRP-007; assay: Agar dilution MIC assay; assay type: cell-based, Propionibacterium acnes; conditions: P. acnes PRP-007 (Clin)
Experimental: as §1, §2, §3, §4, §5

[5] = tested on: P. acnes PRP-008; assay: Agar dilution MIC assay; assay type: cell-based, Propionibacterium acnes; conditions: P. acnes PRP-008 (Clin)
Experimental: as §1, §2, §3, §4, §5

[6] = tested on: P. acnes PRP-010; assay: Agar dilution MIC assay; assay type: cell-based, Propionibacterium acnes; conditions: P. acnes PRP-010 (MLSK)
Experimental: as §1, §2, §3, §4, §5

[7] = tested on: P. acnes PRP-017; assay: Agar dilution MIC assay; assay type: cell-based, Propionibacterium acnes; conditions: P. acnes PRP-017 (MLS)
Experimental: as §1, §2, §3, §4, §5

[8] = tested on: P. acnes PRP-023; assay: Agar dilution MIC assay; assay type: cell-based, Propionibacterium acnes; conditions: P. acnes PRP-023 (MLSK)
Experimental: as §1, §2, §3, §4, §5

[9] = tested on: P. acnes PRP-026; assay: Agar dilution MIC assay; assay type: cell-based, Propionibacterium acnes; conditions: P. acnes PRP-026 (MLS)
Experimental: as §1, §2, §3, §4, §5

[10] = tested on: P. acnes PRP-039; assay: Agar dilution MIC assay; assay type: cell-based, Propionibacterium acnes; conditions: P. acnes PRP-039 (Tet/MLS)
Experimental: as §1, §2, §3, §4, §5

[11] = tested on: P. acnes PRP-046; assay: Agar dilution MIC assay; assay type: cell-based, Propionibacterium acnes; conditions: P. acnes PRP-046 (resistance None)
Experimental: as §1, §2, §3, §4, §5

[12] = tested on: P. acnes PRP-053; assay: Agar dilution MIC assay; assay type: cell-based, Propionibacterium acnes; conditions: P. acnes PRP-053 (Tet/MLS)
Experimental: as §1, §2, §3, §4, §5

[13] = tested on: P. acnes PRP-059; assay: Agar dilution MIC assay; assay type: cell-based, Propionibacterium acnes; conditions: P. acnes PRP-059 (MLS)
Experimental: as §1, §2, §3, §4, §5

[14] = tested on: P. acnes PRP-068; assay: Agar dilution MIC assay; assay type: cell-based, Propionibacterium acnes; conditions: P. acnes PRP-068 (Ery)
Experimental: as §1, §2, §3, §4, §5

[15] = tested on: P. acnes PRP-101; assay: Agar dilution MIC assay; assay type: cell-based, Propionibacterium acnes; conditions: P. acnes PRP-101 (Tet/MLS)
Experimental: as §1, §2, §3, §4, §5

[16] = tested on: P. acnes PRP-102; assay: Agar dilution MIC assay; assay type: cell-based, Propionibacterium acnes; conditions: P. acnes PRP-102 (Tet/MLS)
Experimental: as §1, §2, §3, §4, §5

[17] = tested on: Por. gingivalis NCTC 11834; assay: MBC assay; assay type: cell-based, Porphyromonas gingivalis
Experimental: The P. gingivalis strains were cultured and maintained on Wilkins-Chalgren Anaerobe Medium (agar and broth) at pH 7.0; all cultures were incubated anaerobically at 37° C. for 5-7 days. This assay, normally carried out after an MIC assay, determines the rnininiurn concentration of a compound that is lethal to the micro-organism being tested. […] These samples were then individually sub-cultured on antibiotic-free agar medium, under the incubation conditions described above. Following incubation they were examined visually for microbial growth.

dioctyl sodium sulphosuccinate [DOSS]
<0.49 µg/mL: MBC [17]
31.25 µg/mL: MIC [16]
15.6 µg/mL: MIC [1] | MIC [2] | MIC [3] | MIC [4] | MIC [5] | MIC [6] | MIC [7] | MIC [8] | MIC [9] | MIC [10] | MIC [11] | MIC [12] | MIC [13] | MIC [14] | MIC [15]
